Experimental data published in patent publication US11014917B2, “5-fluoro-c-(aryl or heterocyclyl)-glycoside derivatives useful as dual SGLT1 / SGLT2 modulators” (Janssen Pharmaceutica NV, priority 2017, dated 2021).

How the values were obtained:
[1] = biological target: T1, human SGLT1 (Homo sapiens, UniProt P13866); test: SGLT1 assay: Na-dependent 14C-AMG uptake in CHO-K1 cells stably expressing human SGLT1; format: cell-based; conditions: for IC50: average if tested more than once
T1 construct: expressed in transfected cells
T1 sequence (P13866 1-664): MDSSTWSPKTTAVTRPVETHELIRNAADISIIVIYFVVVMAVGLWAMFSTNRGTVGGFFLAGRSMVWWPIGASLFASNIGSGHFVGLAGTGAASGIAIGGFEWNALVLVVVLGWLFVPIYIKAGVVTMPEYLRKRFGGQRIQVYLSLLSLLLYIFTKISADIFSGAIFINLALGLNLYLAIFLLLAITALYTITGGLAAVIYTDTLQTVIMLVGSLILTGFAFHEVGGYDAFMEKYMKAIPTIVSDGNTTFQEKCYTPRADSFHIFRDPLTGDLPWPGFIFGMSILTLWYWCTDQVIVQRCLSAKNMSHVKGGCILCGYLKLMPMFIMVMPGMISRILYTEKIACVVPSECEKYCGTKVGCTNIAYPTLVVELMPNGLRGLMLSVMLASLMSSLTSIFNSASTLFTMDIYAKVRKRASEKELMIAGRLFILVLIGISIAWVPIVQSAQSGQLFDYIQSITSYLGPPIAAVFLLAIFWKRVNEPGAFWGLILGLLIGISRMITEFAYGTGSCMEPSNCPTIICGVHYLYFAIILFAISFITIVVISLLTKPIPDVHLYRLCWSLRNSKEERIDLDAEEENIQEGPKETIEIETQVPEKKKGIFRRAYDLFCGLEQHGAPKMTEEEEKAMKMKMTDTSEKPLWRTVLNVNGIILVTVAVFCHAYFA
Protocol: (§1) The ability of the compounds of formula (I) of the present invention to treat an SGLT-mediated condition was determined using the following procedures:
(§2) SGLT1 and SGLT2 were cloned in form of cDNA from human small intestine (Genbank M24847), and from human kidney (Genbank M95549), respectively. Subsequently, each full cDNA was subcloned into pcDNA with each construct's integrity verified through follow-on sequencing. To generate CHO-K1 cells that stably express human SGLT1 or human SGLT2, CHO-K1 cells were transfected using DMRIE-C reagent (Life Technologies, Gaithersburg, Md.). Transfected cells were then selected in the presence of 500 μg/ml of the Geneticin (G418 Cellgro Catalog No. 30234-Cl)
(§3) Individual clones were then characterized using the following cell-based assay for sodium-dependent glucose transport:
(§4) Inhibition of SGLT1 and SGLT2 activity was assessed in CHO K1 cells stably expressing either human SGLT1 or SGLT2, using the SGLT specific glucose analog methyl-glucopyranoside (Sigma Catalog No. M-9376). Cells were plated (45,000 cells/well) in white wall 96-well plates (COSTAR, Cat #3903) for 24 hours in growth medium, then a final concentration of 10 mM Na-Butyrate (ALDRICH Cat #30341-0) was added. The cells were incubated for 24 hours. On the day of the assay, cells were rinsed and treated with test compounds (at concentrations of 0.001 μM to 10 μM) in assay buffer (50 mM HEPES, 20 mM Tris base, 5 mM KCl, 1 mM MgCl2, 1 mM CaCl2 and 137 mM NaCl, pH 7.4) for 10 minutes. Cells were then incubated with ^14C-a-methyl-d-glucopyranoside (AMG, Amersham Catalog No. CFB 76), using 0.07 μCi per well in 500 μM AMG final concentration. The cells were incubated for 2 hours at 37° C. with 5% CO2 and washed two times with ice-cold Phosphate Buffer Solution (Cellgro Catalog No. 21030-CV). The cells were then solubilized by adding 60 μl of MICROSCINT™20 and the Na-dependent ^14C-AMG uptake was quantified by measuring radioactivity. Plates were counted in a TopCount (Packard, Meriden, Conn.)
(§5) Representative compounds of the present invention were tested according to the procedures as described in Biological Example 1 and 2 above, with results as listed in Table 5, below. Results are reported as the %-inhibition or IC50 value. Variability for the functional assay was typically within 20%.

[2] = biological target: T2, human SGLT2 (Homo sapiens, UniProt P31639); test: SGLT2 assay: Na-dependent 14C-AMG uptake in CHO-K1 cells stably expressing human SGLT2; format: cell-based; conditions: for IC50: average if tested more than once
T2 construct: expressed in transfected cells
T2 sequence (P31639 1-672): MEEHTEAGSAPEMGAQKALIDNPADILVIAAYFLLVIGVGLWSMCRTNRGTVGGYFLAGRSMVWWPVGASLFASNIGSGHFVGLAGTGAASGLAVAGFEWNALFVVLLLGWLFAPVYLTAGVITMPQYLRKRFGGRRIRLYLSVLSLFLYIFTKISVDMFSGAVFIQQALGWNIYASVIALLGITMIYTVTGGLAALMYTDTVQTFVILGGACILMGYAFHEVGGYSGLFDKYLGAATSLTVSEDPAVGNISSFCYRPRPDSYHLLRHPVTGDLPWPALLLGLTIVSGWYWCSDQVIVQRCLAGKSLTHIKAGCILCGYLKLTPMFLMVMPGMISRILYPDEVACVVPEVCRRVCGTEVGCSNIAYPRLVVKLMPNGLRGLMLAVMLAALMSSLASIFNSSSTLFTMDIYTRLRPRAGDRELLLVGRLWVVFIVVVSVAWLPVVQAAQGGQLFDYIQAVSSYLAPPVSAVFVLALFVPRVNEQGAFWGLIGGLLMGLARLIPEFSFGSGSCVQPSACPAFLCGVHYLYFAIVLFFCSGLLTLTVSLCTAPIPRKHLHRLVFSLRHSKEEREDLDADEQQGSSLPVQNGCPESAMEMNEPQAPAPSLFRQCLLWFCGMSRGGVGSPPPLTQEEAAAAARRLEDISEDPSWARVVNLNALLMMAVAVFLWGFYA
Protocol: as §1, §2, §3, §4, §5

Row | IC50 [1] | IC50 [2] | SGLT1 %-inhibition ([1]; @ 0.3 μM) | SGLT2 %-inhibition ([2]; @ 0.3 μM) | Compound | further results
1 |  |  | 33.6% @ 0.3 μM | 42.3% @ 0.3 μM | OCCC1COc2c(Cc3ccc4c(c3)OCCO4)cc([C@@H]3O[C@H](CO)[C@@H](F)[C@H](O)[C@H]3O)cc21 (stereo partly drawn) [Compound 93] | 
2 | 13 nM | 62 nM |  |  | OC[C@H]1O[C@@H](c2cc(Cc3cc4ccccc4s3)c(C3CC3)cc2O)[C@H](O)[C@@H](O)[C@@H]1F [Compound 29] | 
3 |  |  |  | 15.3% @ 0.3 μM | CC(C)Oc1cc(O)c([C@@H]2O[C@H](CO)[C@@H](F)[C@H](O)[C@H]2O)cc1Cc1cc2ccccc2s1 [Compound 32] | 
4 |  |  |  | 50.3% @ 0.3 μM | COc1cc(O)c([C@@H]2O[C@H](CN)[C@@H](F)[C@H](O)[C@H]2O)cc1Cc1cc2ccccc2s1 [Compound 28] | 
5 |  |  | 32.5% @ 0.3 μM | 81.2% @ 0.3 μM | COc1cc(OC)c([C@@H]2O[C@H](CO)[C@@H](F)[C@H](O)[C@H]2O)cc1Cc1cc2c(s1)CCN(C#N)C2 [Compound 104] | 
6 |  |  | 42.5% @ 0.3 μM | 44.8% @ 0.3 μM | CC1(CO)COc2c(Cc3ccc4c(c3)OCCO4)cc([C@@H]3O[C@H](CO)[C@@H](F)[C@H](O)[C@H]3O)cc21 (stereo partly drawn) [Compound 88] | 
7 | 15 nM | 9 nM |  |  | COc1cc(O)c(C2OC(C(C)O)C(F)C(O)C2O)cc1Cc1cc2ccccc2s1 (single isomer, unassigned) [Compound 52] | 
8 |  |  | 59.8% @ 0.3 μM | 85.8% @ 0.3 μM | COc1c([C@@H]2O[C@H](CO)[C@@H](F)[C@H](O)[C@H]2O)cc(Cc2ccc(OCF)cc2)c2c1CCO2 [Compound 142] | 
9 |  |  | 37.5% @ 0.3 μM | 46.7% @ 0.3 μM | Cc1cc(N2CCc3sc(Cc4cc([C@@H]5O[C@H](CO)[C@@H](F)[C@H](O)[C@H]5O)ccc4C)cc3C2)c(C)s1 [Compound 138] | 
10 | 31 nM | 9 nM |  |  | OC[C@H]1O[C@@H](c2cc(Cc3cc4ccccc4s3)c3c(c2O)CCO3)[C@H](O)[C@@H](O)[C@@H]1F [Compound 59] | 
11 |  |  | 11.5% @ 0.3 μM | 78.0% @ 0.3 μM | Cc1ccc([C@@H]2O[C@H](CO)[C@@H](F)[C@H](O)[C@H]2O)cc1Cc1cc2c(s1)CCCC2=O [Compound 116] | 
12 |  |  | 65.5% @ 0.3 μM | 65.2% @ 0.3 μM | CC(=O)N1CCc2sc(Cc3cc([C@@H]4O[C@H](CO)[C@@H](F)[C@H](O)[C@H]4O)c(O)cc3Cl)cc2C1 [Compound 74] | 
13 | 43 nM | 9 nM |  |  | COc1c([C@@H]2O[C@H](CO)[C@@H](F)[C@H](O)[C@H]2O)cc(Cc2ccc3c(c2)OCCO3)c2c1CCO2 [Compound 65, (2S,3R,4R,5S,6R)-2-(7-((2,3-dihydrobenzo[b][1,4]dioxin-6-yl)methyl)-4-methoxy-2,3-dihydrobenzofuran-5-yl)-5-fluoro-6-(hydroxymethyl)tetrahydro-2H-pyran-3,4-diol] | 
14 | 15 nM | 7 nM |  |  | Cc1c(Cc2cc3ccccc3s2)cc([C@@H]2O[C@H](CO)[C@@H](F)[C@H](O)[C@H]2O)c(O)c1C [Compound 13] | 
15 |  |  |  | 51.0% @ 0.3 μM | CCOc1cc(O)c([C@@H]2O[C@H](CO)[C@@H](F)[C@H](O)[C@H]2O)cc1Cc1cc2ccccc2s1 [Compound 30] | 

Continued, compound first:

Row | Compound | IC50 [1] | IC50 [2] | SGLT1 %-inhibition ([1]; @ 0.3 μM) | SGLT2 %-inhibition ([2]; @ 0.3 μM) | further results
16 | OC[C@H]1O[C@@H](c2cc(Cc3ccc4c(c3)OCCO4)c(Cl)c3c2CCO3)[C@H](O)[C@@H](O)[C@@H]1F [Compound 154] | 42 nM | 2 nM |  |  | 
17 | COC(=O)N1CCc2sc(Cc3cc([C@@H]4O[C@H](CO)[C@@H](F)[C@H](O)[C@H]4O)c(OC)cc3OC)cc2C1 [Compound 83] |  |  | 17.4% @ 0.3 μM | 72.3% @ 0.3 μM | 
18 | N#CN1CCc2sc(Cc3cc([C@@H]4O[C@H](CO)[C@@H](F)[C@H](O)[C@H]4O)ccc3Cl)cc2C1 [Compound 121] |  |  | 20.5% @ 0.3 μM | 79.8% @ 0.3 μM | 
19 | OC[C@H]1O[C@@H](c2cc(Cc3ccc4c(c3)OCCO4)c3c(c2)OCC3)[C@H](O)[C@@H](O)[C@@H]1F [Compound 153] | 50 nM | 58 nM |  |  | 
20 | CCOc1c(Cc2ccc3c(c2)OCCO3)cc([C@@H]2O[C@H](CO)[C@@H](F)[C@H](O)[C@H]2O)c2c1CCO2 [Compound 102, (2S,3R,4R,5S,6R)-2-[5-(2,3-dihydro-1,4-benzodioxin-6-ylmethyl)-4-ethoxy-2,3-dihydrobenzofuran-7-yl]-5-fluoro-6-(hydroxymethyl)tetrahydropyran-3,4-diol] |  |  |  |  | inhibition at 0.3 µM ([1]; @ 0.3 μM): 27.6%; inhibition at 0.3 µM ([2]; @ 0.3 μM): 40.7%
21 | CCOC(=O)N1CCc2sc(Cc3cc([C@@H]4O[C@H](CO)[C@@H](F)[C@H](O)[C@H]4O)c(O)cc3C)cc2C1 [Compound 64] | 156 nM | 36 nM |  |  | 
22 | COc1c(Cc2cc3ccccc3s2)cc([C@@H]2O[C@H](CO)[C@@H](F)[C@H](O)[C@H]2O)c(O)c1C [Compound 14] |  |  | 69.3% @ 0.3 μM | 36.0% @ 0.3 μM | 
23 | [2H]C([2H])(c1ccc2c(c1)OCCO2)c1cc([C@@H]2O[C@H](CO)[C@@H](F)[C@H](O)[C@H]2O)c(OC)c2c1OCC2 [Compound 163, (2S,3R,4R,5S,6R)-2-[7-[dideuterio(2,3-dihydro-1,4-benzodioxin-6-yl)methyl]-4-methoxy-2,3-dihydrobenzofuran-5-yl]-5-fluoro-6-(hydroxymethyl)tetrahydropyran-3,4-diol] | 50 nM | 8 nM |  |  | 
24 | COc1cc(O)c([C@@H]2O[C@H](CF)[C@@H](F)[C@H](O)[C@H]2O)cc1Cc1cc2ccccc2s1 [Compound 11, (2S,3R,4R,5S,6R)-2-[5-(1-benzothiophen-2-ylmethyl)-2-hydroxy-4-methoxyphenyl]-5-fluoro-6-(fluoromethyl)oxane-3,4-diol] | 91 nM | 59 nM |  |  | 
25 | Cc1cnc(N2CCc3sc(Cc4cc([C@@H]5O[C@H](CO)[C@@H](F)[C@H](O)[C@H]5O)c(O)cc4C)cc3C2)s1 [Compound 111] | 101 nM | 19 nM |  |  | 
26 | COc1cc(C)c(Cc2cc3c(s2)CCN(C(=O)c2nccs2)C3)cc1[C@@H]1O[C@H](CO)[C@@H](F)[C@H](O)[C@H]1O [Compound 112, (2-(5-((2S,3R,4R,5S,6R)-5-fluoro-3,4-dihydroxy-6-(hydroxymethyl)-tetrahydro-2H-pyran-2-yl)-4-methoxy-2-methylbenzyl)-6,7-dihydrothieno[3,2-c]pyridin-5(4H)-yl)(thiazol-2-yl)methanone] | 376 nM | 23 nM |  |  | 
27 | OC[C@H]1O[C@@H](c2cc3c(c(Cc4ccc5c(c4)OCCO5)c2)OCC3)[C@H](O)[C@@H](O)[C@@H]1F [Compound 54] | 69 nM | 11 nM |  |  | 
